Results taken from the CheMixHub ionic liquid set.

Assay: xn = mol fraction of the nth substance listed
Details: 101 kPa

CCCCCCCCCCCCCCCC[n+]1ccccc1.O=C([O-])C(O)c1ccccc1 + CC(C)[C@H](N)C(=O)O + O
electrical conductivity [S/m]
Details	293.15 K	298.15 K	303.15 K	308.15 K	313.15 K
x1 = 9.1e-07, x2 = 0.0009002	0.00089	0.00101	0.0011	0.0013	0.0014
x1 = 9.1e-07, x2 = 0.001799	0.00133	0.00151	0.0017	0.0019	0.0021
x1 = 1.08e-06, x2 = 0	0.00061	0.00068	0.00076	0.00083	0.0009
x1 = 1.98e-06, x2 = 0	0.001	0.0012	0.0013	0.0014	0.0016
x1 = 2e-06, x2 = 0.001799	0.00178	0.00203	0.0023	0.0025	0.0028
x1 = 2.17e-06, x2 = 0.0009002	0.0013	0.0015	0.0017	0.0019	0.0021
x1 = 2.88e-06, x2 = 0	0.00147	0.0016	0.0018	0.002	0.0022
x1 = 3.09e-06, x2 = 0.001799	0.00218	0.0025	0.0028	0.0031	0.0034
x1 = 3.26e-06, x2 = 0.0009002	0.00176	0.002	0.0022	0.0025	0.0028
x1 = 3.96e-06, x2 = 0	0.0019	0.0022	0.0024	0.0026	0.0029
x1 = 4e-06, x2 = 0.001799	0.00257	0.0029	0.0032	0.0036	0.004
x1 = 4.53e-06, x2 = 0.0009002	0.00226	0.00256	0.0029	0.0032	0.0035
x1 = 4.69e-06, x2 = 0	0.0023	0.0026	0.0029	0.0031	0.0035
x1 = 5.1e-06, x2 = 0.001799	0.00299	0.0034	0.0038	0.0042	0.0046
x1 = 5.95e-06, x2 = 0	0.00281	0.0032	0.0035	0.0038	0.0042
x1 = 5.98e-06, x2 = 0.0009002	0.00283	0.0032	0.0036	0.004	0.0044
x1 = 6.37e-06, x2 = 0.001799	0.00351	0.004	0.0044	0.0049	0.0055
x1 = 7.21e-06, x2 = 0	0.00341	0.0038	0.0042	0.0046	0.0051
x1 = 7.42e-06, x2 = 0.0009002	0.00334	0.00378	0.0042	0.0047	0.0051
x1 = 7.83e-06, x2 = 0.001799	0.00405	0.00458	0.0051	0.0057	0.0063
x1 = 8.83e-06, x2 = 0	0.00406	0.0046	0.005	0.0055	0.006
x1 = 8.87e-06, x2 = 0.0009002	0.00384	0.00435	0.0049	0.0054	0.006
x1 = 9.28e-06, x2 = 0.001799	0.00457	0.00517	0.0058	0.0064	0.0072
x1 = 1.032e-05, x2 = 0.0009002	0.00431	0.00487	0.0054	0.0061	0.0067
x1 = 1.045e-05, x2 = 0	0.00469	0.0053	0.0058	0.0065	0.0071
x1 = 1.074e-05, x2 = 0.001799	0.00499	0.00564	0.0063	0.0071	0.0079
x1 = 1.177e-05, x2 = 0.0009002	0.00466	0.00529	0.0059	0.0066	0.0074
x1 = 1.201e-05, x2 = 0.001799	0.00536	0.00607	0.0068	0.0076	0.0085
x1 = 1.207e-05, x2 = 0	0.00516	0.0058	0.0064	0.0071	0.0079
x1 = 1.322e-05, x2 = 0.0009002	0.00502	0.00569	0.0064	0.0071	0.0079
x1 = 1.347e-05, x2 = 0.001799	0.00572	0.00647	0.0073	0.0081	0.009
x1 = 1.351e-05, x2 = 0	0.00562	0.00631	0.007	0.0077	0.0085
x1 = 1.431e-05, x2 = 0.0009002	0.00533	0.00604	0.00678	0.0076	0.0084
x1 = 1.474e-05, x2 = 0.001799	0.00607	0.00687	0.0077	0.0086	0.0096
x1 = 1.478e-05, x2 = 0	0.00603	0.0068	0.0075	0.0083	0.0092
x1 = 1.557e-05, x2 = 0.0009002	0.00565	0.0064	0.00717	0.008	0.0089
x1 = 1.583e-05, x2 = 0.001799	0.00637	0.0072	0.0081	0.009	0.01
x1 = 1.622e-05, x2 = 0	0.00644	0.0072	0.008	0.0089	0.0098
x1 = 1.666e-05, x2 = 0.0009002	0.006	0.00675	0.0076	0.0084	0.0094
x1 = 1.766e-05, x2 = 0	0.00687	0.0077	0.0085	0.0094	0.0104

CCCC[N+](C)(C)C.O=S(=O)([N-]S(=O)(=O)C(F)(F)F)C(F)(F)F + CC(O)C(C)O
Details	viscosity [mPa·s]
328.15 K, x2 = 0	30

CCCC[N+](C)(C)C.O=S(=O)([N-]S(=O)(=O)C(F)(F)F)C(F)(F)F + CC(O)CO
Details	viscosity [mPa·s]
323.15 K, x2 = 0	35.6
323.15 K, x2 = 0.8843	11.79
328.15 K, x2 = 0.1909	19.2
333.15 K, x2 = 0.3054	14.35
338.15 K, x2 = 0	22.1
338.15 K, x2 = 0.3054	12.44
338.15 K, x2 = 0.5274	9.87
338.15 K, x2 = 0.8149	7.45
343.15 K, x2 = 0	19.2
348.15 K, x2 = 0	16.81
348.15 K, x2 = 0.1909	11.32
348.15 K, x2 = 0.5274	7.89
348.15 K, x2 = 0.8149	5.76
353.15 K, x2 = 0.8149	5.53

CCCC[N+](C)(C)C.O=S(=O)([N-]S(=O)(=O)C(F)(F)F)C(F)(F)F + CCC(O)CO
Details	viscosity [mPa·s]
323.15 K, x2 = 0.6289	15.53
328.15 K, x2 = 0	30
338.15 K, x2 = 0.2291	14.17
338.15 K, x2 = 0.3543	11.92
343.15 K, x2 = 0.2291	12.41
348.15 K, x2 = 0.6289	7.02
353.15 K, x2 = 0.5116	7.12
353.15 K, x2 = 0.8622	4.78
